Assay results reported in article PMC8850458, “The AUTOTAC chemical biology platform for targeted protein degradation via the autophagy-lysosome system” (Nature Communications, 2022).
Values joined by “and” are separate entries in the source; they are usually repeats but may differ in a detail not shown here. Equal values may be shown once. Read-outs that look alike come from different tables or passages of the source.

What was measured:
Format in all cases: cell-based
[1] = molecular target: T1, estrogen receptor beta (ERβ) (Homo sapiens, UniProt Q92731); test: Western blot degradation of ERβ; details: for ERβ band normalized to control, AVG % / ERβ band (PHTPP) normalized to GAPDH and to control, percentage: 293T; for ERβ band normalized to control, AVG % / ERβ band (PHTPP) normalized to GAPDH and to control, percentage / DC50: 24 h; for ERβ band (PHTPP) normalized to GAPDH and to control, percentage: single experiments
T1 construct: Targeted autophagic degradation of endogenous oncoproteins by AUTOTAC; endogenous in cells; host or cells: HEK293T, ACHN, MCF7
Procedure: (§1) Adherent cells were washed with phosphate-buffered saline (PBS) and cell pellets were lysed in SDS-based sample buffer (277.8 mM Tris-HCI, pH 6.8, 4.4% LDS, 44.4% (v/v) glycerol) containing beta-mercaptoethanol. Alternatively, cell pellets or protein supernatants were lysed in 5X Laemmli sample buffer. Whole-cell lysates were separated using SDS-PAGE, and transferred onto polyvinyllidene difluoride membranes at 100 V for 2 h at 4 °C. The membrane was incubated with a blocking solution consisting 4% skim milk in PBS solution for 30 min at room temperature and incubated with primary antibodies overnight, followed by incubation with host-specific HRP-conjugated secondary antibodies (1:10000 dilution). For signal detection, the membrane was developed with a mixture of ECL solution (Thermo Fisher Scientific) using X-ray films. Densitometry of developed bands was measured and analyzed with ImageJ (NIH, Bethesda).

androgen receptor (AR) = molecular target: T2, androgen receptor (AR) (Homo sapiens, UniProt P10275, T878A); test: Western blot degradation of AR in LNCaP cells; details: for DC50: LNCaP prostate cancer cells; for AR normalized to control, AVG % / AR normalized to GAPDH and to control, percentage: LncaP; for AR normalized to GAPDH and to control, percentage: single experiments, listed as Vinclo.-2204
T2 construct: Targeted autophagic degradation of endogenous oncoproteins by AUTOTAC; endogenous in cells; host or cells: LNCaP
T2 sequence (P10275 1-920 T878A): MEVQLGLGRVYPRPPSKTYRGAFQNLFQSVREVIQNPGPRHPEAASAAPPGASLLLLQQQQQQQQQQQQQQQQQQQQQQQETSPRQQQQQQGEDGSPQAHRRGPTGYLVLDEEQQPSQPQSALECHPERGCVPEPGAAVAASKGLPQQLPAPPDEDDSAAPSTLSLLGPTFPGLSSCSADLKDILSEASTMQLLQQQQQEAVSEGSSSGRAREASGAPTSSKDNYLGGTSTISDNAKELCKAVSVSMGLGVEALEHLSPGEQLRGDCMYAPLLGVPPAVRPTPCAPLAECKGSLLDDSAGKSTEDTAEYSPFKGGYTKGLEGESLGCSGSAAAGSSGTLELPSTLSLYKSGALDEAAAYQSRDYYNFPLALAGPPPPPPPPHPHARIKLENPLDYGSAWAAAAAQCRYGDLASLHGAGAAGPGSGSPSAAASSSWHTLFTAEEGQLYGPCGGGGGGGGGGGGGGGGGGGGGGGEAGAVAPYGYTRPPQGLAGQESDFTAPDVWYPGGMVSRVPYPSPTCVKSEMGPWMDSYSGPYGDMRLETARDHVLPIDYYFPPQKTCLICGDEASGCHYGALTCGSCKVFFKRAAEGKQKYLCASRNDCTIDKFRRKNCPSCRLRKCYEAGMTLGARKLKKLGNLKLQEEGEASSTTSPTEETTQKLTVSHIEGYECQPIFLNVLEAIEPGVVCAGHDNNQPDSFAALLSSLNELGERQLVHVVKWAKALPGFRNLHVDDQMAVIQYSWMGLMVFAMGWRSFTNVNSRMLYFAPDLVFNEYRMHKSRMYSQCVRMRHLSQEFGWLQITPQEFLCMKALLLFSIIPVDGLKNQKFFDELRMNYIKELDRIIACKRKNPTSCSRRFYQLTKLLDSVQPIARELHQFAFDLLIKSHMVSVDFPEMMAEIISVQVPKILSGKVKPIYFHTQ
Procedure: as §1

[2] = test system: AR pathways (EGFR, p-Akt/Akt); test: WB of AR downstream signaling in DHT-activated cells; details: levels of EGFR and p-Akt/Akt
Source text: To assess the therapeutic efficacy of autophagy-targeting degraders, we compared the downstream signaling of AR and ERβ in cells treated with either AUTOTACs or their cognate TBLs. Dihydrotestosterone (DHT) and estradiol (E2) are natural agonists that respectively bind AR and ERβ and induce their dimerization and nuclear translocation, resulting in transcriptional activation of downstream proteins[27],[28]. […] Next, we examined the potency of AUTOTACs in cancer cell growth and progression.
Adherent cells were washed with phosphate-buffered saline (PBS) and cell pellets were lysed in SDS-based sample buffer (277.8 mM Tris-HCI, pH 6.8, 4.4% LDS, 44.4% (v/v) glycerol) containing beta-mercaptoethanol. Alternatively, cell pellets or protein supernatants were lysed in 5X Laemmli sample buffer. Whole-cell lysates were separated using SDS-PAGE, and transferred onto polyvinyllidene difluoride membranes at 100 V for 2 h at 4 °C.

T1 sequence (Q92731 whole entry): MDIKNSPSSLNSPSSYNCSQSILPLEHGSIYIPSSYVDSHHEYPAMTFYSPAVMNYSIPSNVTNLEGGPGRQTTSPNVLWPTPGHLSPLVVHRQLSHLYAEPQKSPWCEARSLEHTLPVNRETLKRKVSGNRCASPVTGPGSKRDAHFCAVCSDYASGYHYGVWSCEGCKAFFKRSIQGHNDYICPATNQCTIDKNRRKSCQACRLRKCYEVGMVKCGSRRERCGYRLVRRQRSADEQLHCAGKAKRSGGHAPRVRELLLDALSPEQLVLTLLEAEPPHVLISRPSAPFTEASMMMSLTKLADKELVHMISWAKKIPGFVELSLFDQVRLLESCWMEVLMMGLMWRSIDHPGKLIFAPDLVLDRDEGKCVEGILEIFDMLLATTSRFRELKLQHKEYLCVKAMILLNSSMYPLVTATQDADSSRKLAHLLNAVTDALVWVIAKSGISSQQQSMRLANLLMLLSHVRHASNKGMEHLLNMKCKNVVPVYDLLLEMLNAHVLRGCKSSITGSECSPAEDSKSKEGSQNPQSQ

SMILES: O[C@H](CNCCOCCOCCOc1ccc(-c2c(-c3ccccc3)nn3c(C(F)(F)F)cc(C(F)(F)F)nc23)cc1)COc1ccc(OCc2ccccc2)c(OCCCc2ccccc2)c1 [PHTPP-1304]
- ERβ band normalized to control, AVG % ([1]; 1nM): 52.5102%
- ERβ band (PHTPP) normalized to GAPDH and to control, percentage ([1]; 1nM): 58.6192% and 52.1272% and 46.7843%
- ERβ band normalized to control, AVG % ([1]; 10nM): 17.5552%
- ERβ band (PHTPP) normalized to GAPDH and to control, percentage ([1]; 10nM): 19.5411% and 16.0071% and 17.1174%
- ERβ band normalized to control, AVG % ([1]; 100nM): 4.912%
- ERβ band (PHTPP) normalized to GAPDH and to control, percentage ([1]; 100nM): 9.1943% and 5.039% and 0.5025%
- ERβ band normalized to control, AVG % ([1]; 1uM): 9.556%
- ERβ band normalized to control, AVG % ([1]; 2.5uM): 4.237%
- ERβ band (PHTPP) normalized to GAPDH and to control, percentage ([1]; 2.5uM): 4.5765% and 5.279% and 2.856%
- DC50 ([1]; ACHN renal carcinoma cells, read-out: DC50 of ERβ): < 100 nM
- Dmax, 24 hr (concentration of maximal clearance at the 24 h mark) of ERβ ([1]; HEK293T cells): 10 to 100 nM
- DC50 ([1]; HEK293T cells, read-out: DC50 (half-degrading concentration) of ERβ): ~2 nM and 1.48 nM
- degradation of ERβ under RNA interference of either p62 or ATG5 ([1]; HEK293T, 0.1 μM 24 h, siRNA 40 nM 48 h): completely abolished
- persistence of ERβ degradation post-washout ([1]; MCF7, MG132 1 μM, compound 500 nM 24 h, then washout): at least 8 h
- DC50 and Dmax values of ERβ degradation ([1]; MCF7 cells, proteasomal inhibition (MG132 1 μM, 24 h)): subnanomolar
- DC50 ([1]; MCF-7 breast cancer cells, read-out: DC50 of ERβ): < 100 nM

SMILES: C=CC(C)(O)C(=O)N(C(=O)NCCOCCOCCNCC(O)COc1ccc(OCCc2ccccc2)c(OCCc2ccccc2)c1)c1cc(Cl)cc(Cl)c1 (stereo not shown) [VinclozolinM2-2204]
- DC50 (androgen receptor (AR)): ~200 nM
- DC50 (androgen receptor (AR); listed as Vinclozolin-2204): 211 nM
- AR normalized to control, AVG % (androgen receptor (AR); 10 nM): 98.914%
- AR normalized to GAPDH and to control, percentage (androgen receptor (AR); 10 nM): 90.6238% and 111.624% and 94.4939%
- AR normalized to control, AVG % (androgen receptor (AR); 50 nM): 121.781%
- AR normalized to GAPDH and to control, percentage (androgen receptor (AR); 50 nM): 119.329% and 128.663% and 117.351%
- AR normalized to control, AVG % (androgen receptor (AR); 100 nM): 60.0788%
- AR normalized to GAPDH and to control, percentage (androgen receptor (AR); 100 nM): 61.0357% and 62.8026% and 56.3981%
- AR normalized to control, AVG % (androgen receptor (AR); 0.5 uM): 19.2601%
- AR normalized to GAPDH and to control, percentage (androgen receptor (AR); 0.5 uM): 14.6016% and 23.3958% and 19.7827%
- AR normalized to control, AVG % (androgen receptor (AR); 1 uM): 23.6569%
- AR normalized to control, AVG % (androgen receptor (AR); 2.5 uM): 22.3824%
- AR normalized to control, AVG % (androgen receptor (AR); 10 uM): 6.006%
- AR normalized to GAPDH and to control, percentage (androgen receptor (AR); 10 uM): 9.375% and 3.388% and 5.255%
- inhibition of AR pathways relative to its TBL [2]: approximately 4 folds
